Where a name gives a salt, the structure may show the parent alone.
Columns and labels:
Assay type in all cases: cell-based
[1] = system: sonic hedgehog pathway; assay: Hedgehog pathway Gli-luciferase reporter assay, TM3 cells; settings: TM3 mouse Leydig cells
Excerpt: (§1) Mouse (TM3: mouse Leydig cells; S12: mouse embryonic mesenchymal cells) and human (Daoy: human medulloblastoma cell; HepM: human embryonic palatal mesenchymal cell) cell lines are used to screen small molecules for their ability to modulate the activity of the sonic hedgehog pathway (Table 1, Table 2, and Table 3). Stable hedgehog pathway reporter cell lines are established by specific antibiotic selection following transfection of a reporter plasmid containing a luciferase gene located directly downstream from the gli promoter. Consequently, any observable changes in cellular luciferase activity may be attributed to changes in sonic hedgehog pathway activity in mouse and human cells, respectively, since gli is the major by-product of this pathway. To calculate activity, we generate an eleven point dose curve for each compound using 1:3 dilutions in 96 well assay plates. Each plate tested also contains low and high control to establish maximal pathway activation so to establish/compare a percentage activation of each tested compound (AMAX) on respective plates. Also we calculate EC50 values, or a concentration where the pathway will be exactly 50% activated, for each tested compound to determine potency. In these cell lines, compounds that register >20% AMAX values are considered active.
(§2) Stable hedgehog pathway reporter cell lines are established following specific antibiotic selection following transfection of a reporter plasmid In short, typically cells are plated in MicroTiter-plates at 10,000-20,000 cells per well, in growth media (containing 10%-20% FBS). After 48-72 hrs (HGL and DGL respectively) the media in the assay plates is switched to low-serum containing media (0.5% FBS). At that time compounds are added (at 1-5 μM) to the assay plates, in the presence or absence of hedgehog protein (octyl-modified version; 1-5 ng/ml). After another 24 hrs of incubation, the media from the assay plates is discarded and replaced with luciferase assay-mix. Subsequently, plates are incubated at RT for ˜15-30 mins and then read in a luminometer. [note: addition of the Hedgehog protein, although not critical, will sensitize the assay allowing the identification of weak actives].

[2] = system: sonic hedgehog pathway; assay: Human hedgehog reporter assay HEPM-GliLuc (HGL); settings: HepM human embryonic palatal mesenchymal cells, Gli-luciferase reporter
Excerpt: as §1, §2

[3] = system: sonic hedgehog pathway; assay: Human hedgehog reporter assay Daoy-GliLuc (DGL); settings: Daoy human medulloblastoma cells, Gli-luciferase reporter; read-out: Daoy Avg. EC50
Excerpt: as §1, §2

Structure (SMILES)	EC50 [1] [nM]	EC50 [2] [nM]	EC50 [3] [nM]
CN[C@H]1CC[C@@H](N(Cc2cc(-c3cncnc3)ccc2OC)C(=O)c2sc3ccccc3c2Cl)CC1 [324 (R20)]	50 to 250	50 to 250	< 50
CN[C@H]1CC[C@@H](N(Cc2cc(-c3cnccn3)ccc2OC)C(=O)c2sc3ccccc3c2Cl)CC1 [330 (R22)]	50 to 250	50 to 250	< 50
CN[C@H]1CC[C@@H](N(Cc2cc(-c3cncnc3)ccc2OC)C(=O)c2sc3c(F)ccc(F)c3c2Cl)CC1 [343 (R15)]	< 50	< 50	< 50
CN[C@H]1CC[C@@H](N(Cc2cc(-c3cnccn3)ccc2OC)C(=O)c2sc3c(F)ccc(F)c3c2Cl)CC1 [344 (R14)]	< 50	< 50	< 50
CN[C@H]1CC[C@@H](N(Cc2cc(-c3ccc(N)nc3)ccc2OC)C(=O)c2sc3c(F)ccc(F)c3c2Cl)CC1 [352 (R18)]	< 50	< 50	< 50
CNC(=O)c1cc(-c2ccc(OC)c(CN(C(=O)c3sc4c(F)ccc(F)c4c3Cl)[C@H]3CC[C@@H](NC)CC3)c2)ccn1 [356 (R16)]	< 50	< 50	< 50
CNC(=O)c1cc(-c2ccc(OC)c(CN(C(=O)c3sc4c(F)ccc(F)c4c3Cl)[C@H]3CC[C@H](NC)CC3)c2)ccn1 [356 (R21), 4-(3-{[(3-Chloro-4,7-difluoro-benzo[b]thiophene-2-carbonyl)-(4-methylamino-cyclohexyl)-amino]-methyl}-4-methoxy-phenyl)-pyridine-2-carboxylic acid methylamide dihydrochloride]	< 50	< 50	< 50
CN[C@H]1CC[C@@H](N(Cc2cc(-c3ccc(C#N)cc3)ccc2OC)C(=O)c2sc3ccccc3c2Cl)CC1 [Compound 301, 3-Chloro-benzo[b]thiophene-2-carboxylic acid (4′-cyano-4-methoxy-biphenyl-3-ylmethyl)-(4-methylamino-cyclohexyl)-amide hydrochloride]	< 50	50 to 250	< 50
CN[C@H]1CC[C@@H](N(Cc2cc(-c3ccc(C(=O)C(F)(F)F)cc3)ccc2OC)C(=O)c2sc3ccccc3c2Cl)CC1 [Compound 302, 3-Chloro-benzo[b]thiophene-2-carboxylic acid [4-methoxy-4′-(2,2,2-trifluoro-acetyl)-biphenyl-3-ylmethyl]-(4-methylamino-cyclohexyl)-amide trifluoroacetate]	< 50	< 50	< 50
CN[C@H]1CC[C@@H](N(Cc2cc(-c3cccc(C#N)c3)ccc2OC)C(=O)c2sc3ccccc3c2Cl)CC1 [Compound 304, 3-Chloro-benzo[b]thiophene-2-carboxylic acid (3′-cyano-4-methoxy-biphenyl-3-ylmethyl)-(4-methylamino-cyclohexyl)-amide hydrochloride]	< 50	< 50	< 50
CN[C@H]1CC[C@@H](N(Cc2cc(-c3ccc(OC)cc3)ccc2OC)C(=O)c2sc3ccccc3c2Cl)CC1 [Compound 305, 3-Chloro-benzo[b]thiophene-2-carboxylic acid (4,4′-dimethoxy-biphenyl-3-ylmethyl)-(4-methylamino-cyclohexyl)-amide hydrochloride]	< 50	250 to 1000	< 50
CCOc1ccc(-c2ccc(C(=O)C(F)(F)F)cc2)cc1CN(C(=O)c1sc2ccccc2c1Cl)[C@H]1CC[C@@H](NC)CC1 [Compound 310, 3-Chloro-benzo[b]thiophene-2-carboxylic acid [4-ethoxy-4′-(2,2,2-trifluoro-acetyl)-biphenyl-3-ylmethyl]-(4-methylamino-cyclohexyl)-amide hydrochloride]	< 50	< 50	< 50
CCOc1ccc(-c2ccc(C(C)=O)cc2)cc1CN(C(=O)c1sc2ccccc2c1Cl)[C@H]1CC[C@@H](NC)CC1 [Compound 311, 3-Chloro-benzo[b]thiophene-2-carboxylic acid (4′-acetyl-4-ethoxy-biphenyl-3-ylmethyl)-(4-methylamino-cyclohexyl)-amide hydrochloride]	< 50	50 to 250	< 50
CN[C@H]1CC[C@@H](N(Cc2cc(-c3ccc(N(C)C=O)cc3)ccc2OC)C(=O)c2sc3ccccc3c2Cl)CC1 [Compound 315, 3-Chloro-benzo[b]thiophene-2-carboxylic acid [4′-(formyl-methyl-amino)-4-methoxy-biphenyl-3-ylmethyl]-(4-methylamino-cyclohexyl)-amide trifluoroacetate]	< 50	250 to 1000	50 to 250
CN[C@H]1CC[C@@H](N(Cc2cc(-c3ccc(N(C)C(C)=O)cc3)ccc2OC)C(=O)c2sc3ccccc3c2Cl)CC1 [Compound 318, 3-Chloro-benzo[b]thiophene-2-carboxylic acid [4′-(acetyl-methyl-amino)-4-methoxy-biphenyl-3-ylmethyl]-(4-methylamino-cyclohexyl)-amide hydrochloride]	< 50	< 50	< 50
CCOc1ccc(-c2cnc(N)nc2)cc1CN(C(=O)c1sc2ccccc2c1Cl)[C@H]1CC[C@@H](NC)CC1 [Compound 325, 3-Chloro-benzo[b]thiophene-2-carboxylic acid [5-(2-amino-pyrimidin-5-yl)-2-ethoxy-benzyl]-(4-methylamino-cyclohexyl)-amide dihydrochloride]	250 to 1000	50 to 250	< 50
CCOc1ccc(-c2cncnc2)cc1CN(C(=O)c1sc2ccccc2c1Cl)[C@H]1CC[C@@H](NC)CC1 [Compound 326, 3-Chloro-benzo[b]thiophene-2-carboxylic acid (2-ethoxy-5-pyrimidin-5-yl-benzyl)-(4-methylamino-cyclohexyl)-amide dihydrochloride]	50 to 250	50 to 250	< 50
CCOc1ccc(-c2cccc(C#N)c2)cc1CN(C(=O)c1sc2ccccc2c1Cl)[C@H]1CC[C@@H](NC)CC1 [Compound 328, 3-Chloro-benzo[b]thiophene-2-carboxylic acid (3′-cyano-4-ethoxy-biphenyl-3-ylmethyl)-(4-methylamino-cyclohexyl)-amide hydrochloride]	< 50	50 to 250	< 50
CN[C@H]1CC[C@@H](N(Cc2cc(-c3ccc(CCl)cc3)ccc2OC)C(=O)c2sc3ccccc3c2Cl)CC1 [Compound 340, 3-Chloro-benzo[b]thiophene-2-carboxylic acid (4′-chloromethyl-4-methoxy-biphenyl-3-ylmethyl)-(4-methylamino-cyclohexyl)-amide hydrochloride]	< 50	< 50	< 50
CN[C@H]1CC[C@@H](N(Cc2cc(-c3ccnc(C)c3)ccc2OC)C(=O)c2sc3c(F)ccc(F)c3c2Cl)CC1 [Compound 345, 3-Chloro-4,7-difluoro-benzo[b]thiophene-2-carboxylic acid [2-methoxy-5-(2-methyl-pyridin-4-yl)-benzyl]-(4-methylamino-cyclohexyl)-amide dihydrochloride]	< 50	< 50	< 50
CN[C@H]1CC[C@@H](N(Cc2cc(-c3ccnc(C(=O)O)c3)ccc2OC)C(=O)c2sc3c(F)ccc(F)c3c2Cl)CC1 [Compound R6, 4-(3-{[(3-Chloro-4,7-difluoro-benzo[b]thiophene-2-carbonyl)-(4-methylamino-cyclohexyl)-amino]-methyl}-4-methoxy-phenyl)-pyridine-2-carboxylic acid bis(trifluoroacetate)]	50 to 250	50 to 250	
CN[C@H]1CC[C@@H](N(Cc2cc(-c3ccc(S(C)(=O)=O)cc3)ccc2OC)C(=O)c2sc3ccccc3c2Cl)CC1 [Compound R7, 3-Chloro-benzo[b]thiophene-2-carboxylic acid (4′-methanesulfonyl-4-methoxy-biphenyl-3-ylmethyl)-(4-methylamino-cyclohexyl)-amide hydrochloride]	< 50	< 50	
CN[C@H]1CC[C@@H](N(Cc2cc(-c3ccc(C(N)=O)cc3)ccc2OC)C(=O)c2sc3c(F)ccc(F)c3c2Cl)CC1 [Compound R8, 3-Chloro-4,7-difluoro-benzo[b]thiophene-2-carboxylic acid (4′-carbamoyl-4-methoxy-biphenyl-3-ylmethyl)-(4-methylamino-cyclohexyl)-amide hydrochloride]	< 50	< 50	
